Source: patent USRE47589E1, “Phosphoramidate compounds and methods of use” (NuCana plc, priority 2003, dated 2019)
Entries after “also recorded” stand apart in the source; their conditions may differ.

Key:
[1] = system: human prostate cancer cell line (PC-3); assay: MTT cytotoxicity assay, prostate cancer cell line; format: cell-based; conditions: Homo sapiens, read-out: EC50/μM Prostate PC-3
Method: (§1) The compounds include those whose preparations are described above and compounds made by preparative methods corresponding to the methods described above.
(§2) Compounds were diluted over a range of concentrations and added to cells over 1 to 3 days. The cytotoxity was determined using a MTT assay at the end of each experiment.

[2] = Toxicity in mouse xenograft model (body mass loss, incident-free survival)
Method: (§3) Mice were dosed daily at a range of concentrations (0.01-10 μM) and tumour volume assessed versus control.
(§4) Kaplan-Meier statistics were computed regarding incident-free survival.

[3] = system: human colon cancer cell line (HT115); assay: MTT cytotoxicity assay, colon cancer cell line; format: cell-based; conditions: for EC50: Homo sapiens, HT115, read-out: EC50/μM Colon HT115, MTT assay, compounds added to cells over 1 to 3 days; for concentration found to be active in vitro, colon cell line: same colon cell line (HT115)
Method: as §1, §2

[4] = system: human breast cancer cell line (MDA MB 231); assay: MTT cytotoxicity assay, breast cancer cell line; format: cell-based; conditions: Homo sapiens, MDA-MB-231, read-out: EC50/μM Breast MDA MB231
Method: as §1, §2

colon HT115 xenograft = assay: Mouse xenograft of human cancer, colon tumour volume; format: in vivo; conditions: for reducing colon tumour volume relative to control: daily dosing, CPF31 at 5 and 10 μM (3 and 6 μg/ml), gemcitabine at highest non-toxic concentration
Method: as §3

prostrate PC3 xenograft = assay: Mouse xenograft of human cancer, prostate tumour volume; format: in vivo; conditions: daily dosing, CPF31 at 5 and 10 μM (3 and 6 μg/ml), gemcitabine at highest non-toxic concentration
Method: as §3

[5] = in vivo, 13 day
Method: as §3, §4

Row | Structure (SMILES) | EC50 [1] | animals showing serious toxicity (10% body mass loss), day 10 ([2]; 5 and 10 μM groups combined, day 10) | animals showing serious toxicity (10% body mass loss), day 11, collectively ([2]; 5 and 10 μM groups combined, day 11) | animals showing serious toxicity (10% body mass loss), day 13 ([2]; 5 and 10 μM groups combined, day 13) | toxicity compared with gemcitabine (Gemzar, GMZ) ([2]; mouse xenograft, weight loss based, Kaplan-Meier / Cox analysis, listed as CPF31) | EC50 [3] | concentration found to be active in vitro, colon cell line [3] | EC50 [4] | activity in reducing colon tumour volume in vivo at 5 μM (FIG. 4) (colon HT115 xenograft; 5 μM, day 24, versus Gemzar) | reducing colon tumour volume relative to control (colon HT115 xenograft) | reducing prostate tumour volume relative to control (prostrate PC3 xenograft) | toxic concentration in mouse xenograft (FIG. 1) [5]
1 | C[C@H](NP(=O)(OC[C@H]1O[C@@H](n2ccc(N)nc2=O)C(F)(F)C1O)Oc1ccccc1)C(=O)OCc1ccccc1 (stereo partly drawn) [Example 31, Gemcitabine-[phenyl-(benzoxy-L-alaninyl)]-phosphate] | 0.22 µM | 3 animals | 1 animals | 1 animals | significantly less toxic; also recorded: substantially lower toxicity; also recorded: far less toxic | 5.7 µM | 5 µM | 42.6 µM | greater activity | significantly effective | significantly effective | 
2 | Nc1ccn([C@@H]2O[C@H](CO)[C@@H](O)C2(F)F)c(=O)n1 [Example G, gemcitabine, reference compound] | 3.12 µM |  |  |  |  | 606 µM | 600 µM | 2.8 µM |  | not effective | not effective | above 1 μM
